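GI50: concentration for 50% inhibition of growth. The concentration for full growth arrest is given as TGI.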
What was measured:
Assay in all cases: NCI tumour cell line growth inhibition, 384-well format
[1] = test system: SF-268 CNS
[2] = test system: MALME-3M melanoma
[3] = test system: NCI/ADR-RES ovarian
[4] = test system: UACC-62 melanoma
[5] = test system: PC-3 prostate
[6] = test system: MCF7 breast
[7] = test system: U251 glioblastoma
[8] = test system: OVCAR-8 ovarian
[9] = test system: SK-MEL-5 melanoma
[10] = test system: SF-295 CNS
[11] = test system: HS 578T breast
[12] = test system: KM12 colon
[13] = test system: DU-145 prostate
[14] = test system: HT29 colon
[15] = test system: A549 NSCLC
[16] = test system: NCI-H522 lung
[17] = test system: COLO 205 colon
[18] = test system: OVCAR-3 ovarian
[19] = test system: BT-549 breast
[20] = test system: IGROV1 ovarian
[21] = test system: HOP-92 NSCLC
[22] = test system: SW-620 colon
[23] = test system: K-562 leukemia
[24] = test system: SNB-75 CNS
[25] = test system: SNB-19 CNS
[26] = test system: HL-60(TB) leukemia
[27] = test system: UACC-257 melanoma
[28] = test system: SK-OV-3 ovarian
[29] = test system: OVCAR-5 ovarian

CC(CN(C)C)S(=O)(=O)c1ccc(-c2cnc(N)c(C(=O)Nc3ccccc3)n2)cc1 (stereo not drawn)
GI50 [1]: 3.49 µM | TGI [1]: 12.4 µM | GI50 [2]: 1.81 µM | TGI [2]: 5.29 µM | GI50 [3]: 3.11 µM | TGI [3]: 15.1 µM | GI50 [4]: 2.14 µM | TGI [4]: 9.84 µM | GI50 [5]: 5.52 µM | TGI [5]: 24.4 µM | GI50 [6]: 0.844 µM | TGI [6]: 13.4 µM | GI50 [7]: 2.51 µM | TGI [7]: 12.1 µM | GI50 [8]: 3.82 µM | TGI [8]: 14.9 µM | GI50 [9]: 2.27 µM | TGI [9]: 6.06 µM | GI50 [10]: 2.85 µM | TGI [10]: 9.55 µM | GI50 [11]: 0.837 µM | TGI [11]: 3.17 µM | GI50 [12]: 2.79 µM | TGI [12]: 12.3 µM | GI50 [13]: 2.9 µM | TGI [13]: 13.4 µM | GI50 [14]: 1.61 µM | TGI [14]: 3.69 µM | GI50 [15]: 2.17 µM | TGI [15]: 27.5 µM | GI50 [16]: 10.3 µM | TGI [16]: 22.3 µM | GI50 [17]: 2.25 µM | TGI [17]: 5.9 µM | GI50 [18]: 3.04 µM | TGI [18]: 14.2 µM | GI50 [19]: 0.556 µM | TGI [19]: 2.69 µM | GI50 [20]: 1.99 µM | TGI [20]: 5.27 µM | GI50 [21]: 1.4 µM | TGI [21]: 10.8 µM | GI50 [22]: 1.71 µM | TGI [22]: 3.25 µM | GI50 [23]: 1.89 µM | TGI [23]: 3.53 µM | GI50 [24]: 9.27 µM | TGI [24]: > 100 µM | GI50 [25]: 4.56 µM | TGI [25]: 18.5 µM | GI50 [26]: 1.49 µM | TGI [26]: 2.83 µM | GI50 [27]: 1.73 µM | TGI [27]: 3.35 µM | GI50 [28]: 2.18 µM | TGI [28]: 13.1 µM | GI50 [29]: 3.84 µM | TGI [29]: 14 µM

Reference: PubChem BioAssay (NCI)
